From patent US10738028B2, “Spiro three-membered ring, spiro five-membered ring peptide deformylase inhibitor and use thereof in antibacteria and anti-tumor” (priority 2016, dated 2020)

Legend:
Format in all cases: cell-based
[1] = tested on: HCT-116 colorectal cancer cell line; experiment: CCK-8 proliferation inhibition; details: 72 hours, CCK-8
Summary of the method: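 Viability read-out: 1:10 diluted CCK-8 after 72 h compound exposure at 37 °C, 5% CO2. Cells (2000/well, McCoy's 5A plus 10% newborn bovine serum) pre-cultured overnight; vehicle control 1‰ DMSO.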

[2] = tested on: MCF-7 breast cancer cell line; experiment: CCK-8 proliferation inhibition; details: Homo sapiens, MCF7, 72 hours
Summary of the method: (§1)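 Growth inhibition measured by CCK-8 read-out after 72 h continuous compound treatment, 1‰ DMSO vehicle as control. Cells plated 2000/well the night before at 37 °C, 5% CO2; medium was 1640 for Jurkat and MGC-803, F12 for PC3, DMEM high glucose for MCF-7, each with 10% newborn bovine serum.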

[3] = tested on: BEL-7402 liver cancer cell line; experiment: CCK-8 proliferation inhibition
Summary of the method: (§2)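 Plating at 2000 cells/well, then incubation overnight at 37° C. Next, a range of compound concentrations for 72 hours (control 1‰ DMSO). Finally, medium decanted and CCK-8 diluted 1:10 added.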

[4] = tested on: Jurkat T cell leukemia cell line; experiment: CCK-8 proliferation inhibition; details: Homo sapiens, 72 hours
Summary of the method: as §1

[5] = tested on: Hela cervical cancer cell line; experiment: CCK-8 proliferation inhibition; details: Homo sapiens, 72 hours
Summary of the method: as §2

[6] = tested on: PC3 prostate cancer cell line; experiment: CCK-8 proliferation inhibition; details: 72 hours
Summary of the method: as §1

[7] = tested on: HL60 acute myeloid leukemia cell line; experiment: CCK-8 proliferation inhibition; details: Homo sapiens, HL-60, 72 hours
Summary of the method: as §2

[8] = tested on: A549 lung cancer cell line; experiment: CCK-8 proliferation inhibition
Summary of the method: as §2

[9] = tested on: SAOS-2 osteosarcoma cell line; experiment: CCK-8 proliferation inhibition; details: Homo sapiens, 72 hours, read-out: IC50 Steosarcoma SAOS-2
Summary of the method: as §1

[10] = tested on: MGC-803 gastric cancer cell line; experiment: CCK-8 proliferation inhibition
Summary of the method: as §1

[11] = tested on: Enterococcus faecium (EFM); experiment: MIC, two-fold agar dilution (CLSI), clinical isolates
Summary of the method: (§3)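 MIC values come from two-fold agar dilution run per CLSI antimicrobial susceptibility testing procedure.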

[12] = tested on: Streptococcus pneoumoniae (SPN); experiment: as above
Summary of the method: as §3

[13] = tested on: Enterococcus faecalis (EFA); experiment: as above
Summary of the method: as §3

[14] = tested on: Escherichia coli (including ESBLs, non-ESBLs); experiment: as above
Summary of the method: as §3

[15] = tested on: methicillin-sensitive Staphylococcus aureus (MSSA); experiment: as above
Summary of the method: as §3

[16] = tested on: methicillin-resistant Staphylococcus epidermidis (MRSE); experiment: as above
Summary of the method: as §3

[17] = tested on: methicillin-resistant Staphylococcus aureus (MRSA); experiment: as above
Summary of the method: as §3

[18] = tested on: Moraxella catarrhalis (BCA); experiment: as above
Summary of the method: as §3

[19] = tested on: methicillin-sensitive Staphylococcus epidermidis (MSSE); experiment: as above
Summary of the method: as §3

[20] = MIC in vitro anti-bacterial experiments, Gram-positive bacteria; details: lowest MIC reached; read-out: minimum inhibitory concentration against Gram-positive bacteria
Summary of the method: as §3

[21] = concentration of 30 μM, 72 hours, 30 µM

With `O=C(C[C@@H](CC1CCCC1)C(=O)N1CC2(CC2)C[C@H]1C(=O)Nc1ccc(F)cn1)NO` [Example 64] the IC50 ([1]; Homo sapiens, HCT-116) was 4.88 µM, the HCT116 inhibition rate/% ([1]; concentration of 30 μM, 30 µM) was 87% and the IC50 [2] was 6.62 µM. For the same compound, the IC50 ([3]; Homo sapiens, Bel-7402, 72 hours) was 5 µM, the “Inhibition of proliferation, Liver cancer BEL-7402” value [3, 21] was 81% and the IC50 [4] was 7.61 µM. The IC50 [5] was 11.5 µM, the IC50 [6] was 6.17 µM and the IC50 [7] was 1.21 µM. The inhibition at 30 µM ([8]; Homo sapiens, A549, 72 h, concentration of 30 μM) was over 50%, the IC50 ([8]; Homo sapiens, A549, 72 hours) was 4.86 µM and the “Inhibition of proliferation, Lung cancer A549” value [8, 21] was 61%. The IC50 [9] was 2 µM, the inhibition at 30 µM ([10]; Homo sapiens, MGC-803, 72 h, concentration of 30 μM) was over 50% and the IC50 ([10]; Homo sapiens, MGC-803, 72 hours) was 6.11 µM. The “Inhibition of proliferation, Gastric cancer MGC-803” value [10, 21] was 63%, the Anti-bacterial activity (MIC), strain EFM 15-1 ([11]; clinical isolate EFM 15-1) was 32 µg/mL and the Anti-bacterial activity (MIC), strain EFM 15-2 ([11]; clinical isolate EFM 15-2) was 32 µg/mL. It also gave an Anti-bacterial activity (MIC), strain EFM 15-3 ([11]; clinical isolate EFM 15-3) of 32 µg/mL, an Anti-bacterial activity (MIC), strain EFM 15-4 ([11]; clinical isolate EFM 15-4) of 1 µg/mL and an Anti-bacterial activity (MIC), strain EFM 15-5 ([11]; clinical isolate EFM 15-5) of 1 µg/mL. For the same compound, the Anti-bacterial activity (MIC), strain EFM 15-6 ([11]; clinical isolate EFM 15-6) was 1 µg/mL, the Anti-bacterial activity (MIC), strain SPN 16-2 ([12]; clinical isolate SPN 16-2) was 0.125 µg/mL and the Anti-bacterial activity (MIC), strain SPN 16-4 ([12]; clinical isolate SPN 16-4) was 0.125 µg/mL. For the same compound, the Anti-bacterial activity (MIC), strain EFA 15-1 ([13]; clinical isolate EFA 15-1) was 32 µg/mL, the Anti-bacterial activity (MIC), strain EFA 15-2 ([13]; clinical isolate EFA 15-2) was 32 µg/mL and the Anti-bacterial activity (MIC), strain EFA 15-3 ([13]; clinical isolate EFA 15-3) was 32 µg/mL. It also gave an Anti-bacterial activity (MIC), strain EFA 15-4 ([13]; clinical isolate EFA 15-4) of 32 µg/mL, an Anti-bacterial activity (MIC), strain EFA 15-5 ([13]; clinical isolate EFA 15-5) of 32 µg/mL and an Anti-bacterial activity (MIC), strain EFA 15-6 ([13]; clinical isolate EFA 15-6) of 32 µg/mL. It also gave an Anti-bacterial activity (MIC), strain EFA 15-9 ([13]; clinical isolate EFA 15-9) of 4 µg/mL, an Anti-bacterial activity (MIC), strain ECO+ 15-1 ([14]; clinical isolate ECO+ 15-1) of 16 µg/mL and an Anti-bacterial activity (MIC), strain ECO+ 15-2 ([14]; clinical isolate ECO+ 15-2) of 32 µg/mL. For the same compound, the Anti-bacterial activity (MIC), strain ECO+ 15-3 ([14]; clinical isolate ECO+ 15-3) was 16 µg/mL, the Anti-bacterial activity (MIC), strain ECO+ 15-4 ([14]; clinical isolate ECO+ 15-4) was 16 µg/mL and the Anti-bacterial activity (MIC), strain ECO− 15-1 ([14]; clinical isolate ECO− 15-1) was 16 µg/mL. For the same compound, the Anti-bacterial activity (MIC), strain ECO− 15-2 ([14]; clinical isolate ECO− 15-2) was 16 µg/mL, the Anti-bacterial activity (MIC), strain ECO− 15-3 ([14]; clinical isolate ECO− 15-3) was 32 µg/mL and the Anti-bacterial activity (MIC), strain ECO− 15-4 ([14]; clinical isolate ECO− 15-4) was 16 µg/mL. For the same compound, the Anti-bacterial activity (MIC), strain MSSA 15-3 ([15]; clinical isolate MSSA 15-3) was 0.06 µg/mL, the Anti-bacterial activity (MIC), strain MSSA 15-4 ([15]; clinical isolate MSSA 15-4) was 0.03 µg/mL and the Anti-bacterial activity (MIC), strain MSSA 15-5 ([15]; clinical isolate MSSA 15-5) was 0.03 µg/mL. It also gave an Anti-bacterial activity (MIC), strain MSSA 15-6 ([15]; clinical isolate MSSA 15-6) of 16 µg/mL, an Anti-bacterial activity (MIC), strain MRSE 15-1 ([16]; clinical isolate MRSE 15-1) of 0.06 µg/mL and an Anti-bacterial activity (MIC), strain MRSE 15-2 ([16]; clinical isolate MRSE 15-2) of 0.06 µg/mL. For the same compound, the Anti-bacterial activity (MIC), strain MRSE 15-3 ([16]; clinical isolate MRSE 15-3) was 0.06 µg/mL, the Anti-bacterial activity (MIC), strain MRSE 15-7 ([16]; clinical isolate MRSE 15-7) was 0.06 µg/mL and the Anti-bacterial activity (MIC), strain MRSA 15-1 ([17]; clinical isolate MRSA 15-1) was 0.03 µg/mL. For the same compound, the Anti-bacterial activity (MIC), strain MRSA 15-2 ([17]; clinical isolate MRSA 15-2) was 0.06 µg/mL, the Anti-bacterial activity (MIC), strain MRSA 15-3 ([17]; clinical isolate MRSA 15-3) was 0.03 µg/mL and the Anti-bacterial activity (MIC), strain MRSA 15-4 ([17]; clinical isolate MRSA 15-4) was 0.06 µg/mL. It also gave an Anti-bacterial activity (MIC), strain BCA 14-1 ([18]; clinical isolate BCA 14-1) of 0.25 µg/mL, an Anti-bacterial activity (MIC), strain BCA 14-4 ([18]; clinical isolate BCA 14-4) of 1 µg/mL and an Anti-bacterial activity (MIC), strain BCA 14-5 ([18]; clinical isolate BCA 14-5) of 1 µg/mL. For the same compound, the Anti-bacterial activity (MIC), strain BCA 14-6 ([18]; clinical isolate BCA 14-6) was 1 µg/mL, the Anti-bacterial activity (MIC), strain BCA 14-7 ([18]; clinical isolate BCA 14-7) was 1 µg/mL and the Anti-bacterial activity (MIC), strain BCA 14-8 ([18]; clinical isolate BCA 14-8) was 0.125 µg/mL. For the same compound, the Anti-bacterial activity (MIC), strain BCA 14-10 ([18]; clinical isolate BCA 14-10) was 0.125 µg/mL, the Anti-bacterial activity (MIC), strain MSSE 15-3 ([19]; clinical isolate MSSE 15-3) was 0.03 µg/mL and the Anti-bacterial activity (MIC), strain MSSE 15-4 ([19]; clinical isolate MSSE 15-4) was 0.06 µg/mL. It also gave an Anti-bacterial activity (MIC), strain MSSE 15-5 ([19]; clinical isolate MSSE 15-5) of 0.06 µg/mL, an Anti-bacterial activity (MIC), strain MSSE 15-6 ([19]; clinical isolate MSSE 15-6) of over 0.008 µg/mL and an MIC [20] of under 0.008 µg/mL.
